The values that follow come from ChEMBL document CHEMBL5625192, “Discovery of Ibrutinib-based BTK PROTACs with in vivo anti-inflammatory efficacy by inhibiting NF-κB activation” (Eur J Med Chem, 2023).

Format in all cases: cell-based
In experiment [1] the target is T1, Protein cereblon/Tyrosine-protein kinase BTK (Homo sapiens, UniProt Q06187+Q96SW2). The experiment in a line: PROTAC activity at CRBN/BTK in human Ramos cells assessed as induction of BTK degradation at 100 nM incubated for 24 hrs by Western blot analysis relative to control. (In general: Immunoblotting shows a protein as a band on a membrane.)
Target sequence in this assay (Q06187 2-659 limits assumed): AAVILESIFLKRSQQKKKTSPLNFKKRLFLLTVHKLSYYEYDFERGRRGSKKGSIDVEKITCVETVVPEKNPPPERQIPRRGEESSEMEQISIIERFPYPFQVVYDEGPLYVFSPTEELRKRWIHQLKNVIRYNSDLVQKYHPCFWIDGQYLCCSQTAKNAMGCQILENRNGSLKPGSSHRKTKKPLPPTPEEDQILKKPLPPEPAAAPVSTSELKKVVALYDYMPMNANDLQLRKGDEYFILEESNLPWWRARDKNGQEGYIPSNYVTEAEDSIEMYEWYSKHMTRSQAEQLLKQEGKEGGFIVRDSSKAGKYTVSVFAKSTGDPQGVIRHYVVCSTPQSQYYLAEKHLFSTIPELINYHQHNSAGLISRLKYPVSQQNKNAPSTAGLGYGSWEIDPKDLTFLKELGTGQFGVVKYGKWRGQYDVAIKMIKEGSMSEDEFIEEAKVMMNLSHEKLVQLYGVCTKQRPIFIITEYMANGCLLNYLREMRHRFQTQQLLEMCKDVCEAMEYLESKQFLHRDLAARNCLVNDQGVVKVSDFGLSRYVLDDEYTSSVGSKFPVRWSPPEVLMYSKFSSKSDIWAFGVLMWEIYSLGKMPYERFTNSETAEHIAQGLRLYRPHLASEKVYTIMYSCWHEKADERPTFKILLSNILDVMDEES
Target sequence in this assay (Q96SW2 whole entry partner): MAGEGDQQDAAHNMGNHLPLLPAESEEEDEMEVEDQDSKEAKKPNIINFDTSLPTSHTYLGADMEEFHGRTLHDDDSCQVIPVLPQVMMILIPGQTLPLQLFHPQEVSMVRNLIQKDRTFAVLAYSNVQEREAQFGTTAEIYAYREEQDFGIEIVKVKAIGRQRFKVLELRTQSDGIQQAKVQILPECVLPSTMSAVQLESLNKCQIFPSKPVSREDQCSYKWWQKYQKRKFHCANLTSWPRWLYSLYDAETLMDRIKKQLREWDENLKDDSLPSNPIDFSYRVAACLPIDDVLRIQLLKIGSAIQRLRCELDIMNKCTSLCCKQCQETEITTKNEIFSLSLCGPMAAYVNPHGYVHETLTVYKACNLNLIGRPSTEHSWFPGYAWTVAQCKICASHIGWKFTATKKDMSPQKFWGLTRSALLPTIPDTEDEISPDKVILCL
The target of experiment [2] is T1, Protein cereblon/Tyrosine-protein kinase BTK. As to the kind of experiment: PROTAC activity at CRBN/BTK in human Ramos cells assessed as induction of BTK degradation incubated for 24 hrs by Western blot analysis.
Target sequence in this assay (Q06187 whole entry): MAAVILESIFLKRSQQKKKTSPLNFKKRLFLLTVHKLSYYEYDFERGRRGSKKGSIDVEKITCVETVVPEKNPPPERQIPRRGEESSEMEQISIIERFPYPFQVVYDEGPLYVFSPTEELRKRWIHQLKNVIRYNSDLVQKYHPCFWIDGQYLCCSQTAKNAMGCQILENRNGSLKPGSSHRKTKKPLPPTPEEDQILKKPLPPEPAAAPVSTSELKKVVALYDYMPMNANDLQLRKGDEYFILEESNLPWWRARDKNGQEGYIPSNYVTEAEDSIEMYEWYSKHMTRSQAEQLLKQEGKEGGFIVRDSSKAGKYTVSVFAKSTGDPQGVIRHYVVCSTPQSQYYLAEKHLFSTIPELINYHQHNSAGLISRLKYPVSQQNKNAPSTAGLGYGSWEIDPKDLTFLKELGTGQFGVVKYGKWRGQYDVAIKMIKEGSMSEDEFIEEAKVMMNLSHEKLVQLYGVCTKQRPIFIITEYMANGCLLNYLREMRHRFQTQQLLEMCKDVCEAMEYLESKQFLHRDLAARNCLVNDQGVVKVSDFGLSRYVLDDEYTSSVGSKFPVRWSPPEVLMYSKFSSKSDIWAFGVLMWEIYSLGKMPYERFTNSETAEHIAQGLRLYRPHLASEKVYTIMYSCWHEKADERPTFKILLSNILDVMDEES
Target sequence in this assay (Q96SW2 whole entry): as the sequence (Q96SW2 whole entry partner) above
Experiment [3] shares this target. The experiment in a line: PROTAC activity at CRBN/BTK in human Ramos cells assessed as induction of BTK degradation by measuring maximal efficacy incubated for 24 hrs by Western blot analysis relative to control.
Target sequence in this assay (Q06187 2-659 limits assumed): as the sequence (Q06187 2-659 limits assumed) above
Target sequence in this assay (Q96SW2 whole entry partner): as the sequence (Q96SW2 whole entry partner) above
For experiment [4] the target is unchanged. The experiment in a line: PROTAC activity at CRBN/BTK in human Ramos cells assessed as hook effect at 10000 nM incubated for 24 hrs by Western blot analysis.
Target sequence in this assay (Q06187 2-659 limits assumed): as the sequence (Q06187 2-659 limits assumed) above
Target sequence in this assay (Q96SW2 whole entry partner): as the sequence (Q96SW2 whole entry partner) above
Experiment [5] has the same target. As to the kind of experiment: PROTAC activity at CRBN/BTK in human Ramos cells assessed as hook effect at 1000 nM incubated for 24 hrs by Western blot analysis.
Target sequence in this assay (Q06187 2-659 limits assumed): as the sequence (Q06187 2-659 limits assumed) above
Target sequence in this assay (Q96SW2 whole entry partner): as the sequence (Q96SW2 whole entry partner) above
Experiment [6] shares this target. The experiment in a line: PROTAC activity at CRBN/BTK in human MINO cells assessed as induction of BTK degradation incubated for 24 hrs by Western blot analysis.
Target sequence in this assay (Q06187 whole entry): as the sequence (Q06187 whole entry) above
Target sequence in this assay (Q96SW2 whole entry): as the sequence (Q96SW2 whole entry partner) above
Experiment [7] shares this target. The experiment in a line: PROTAC activity at CRBN/BTK in human MINO cells assessed as induction of BTK degradation by measuring maximal efficacy incubated for 24 hrs by Western blot analysis relative to control.
Target sequence in this assay (Q06187 2-659 limits assumed): as the sequence (Q06187 2-659 limits assumed) above
Target sequence in this assay (Q96SW2 whole entry partner): as the sequence (Q96SW2 whole entry partner) above
For experiment [8] the target is unchanged. The experiment in a line: PROTAC activity at CRBN/BTK in human MINO cells assessed as hook effect at >10000 nM incubated for 24 hrs by Western blot analysis.
Target sequence in this assay (Q06187 2-659 limits assumed): as the sequence (Q06187 2-659 limits assumed) above
Target sequence in this assay (Q96SW2 whole entry partner): as the sequence (Q96SW2 whole entry partner) above
The target is the same in experiment [9]. As to the kind of experiment: PROTAC activity at CRBN/BTK in human Ramos cells assessed as induction of BTK degradation at 100 nM incubated for 24 hrs by Western blot analysis.
For experiment [10] the target is unchanged. As to the kind of experiment: PROTAC activity at CRBN/BTK in human MINO cells assessed as hook effect upto 10000 nM incubated for 24 hrs by Western blot analysis.
Experiment [11] has the same target. The experiment in a line: PROTAC activity at CRBN/BTK in human Ramos cells assessed as induction of BTK degradation at 100 nM measured within 4 hrs by Western blot analysis.
For experiment [12] the target is unchanged. The experiment in a line: PROTAC activity at CRBN/BTK in human Ramos cells assessed as induction of BTK degradation at 100 nM measured after 8 hrs by Western blot analysis relative to control.
Experiment [13] shares this target. As to the kind of experiment: PROTAC activity at CRBN/BTK in human Ramos cells assessed as induction of BTK degradation at 100 nM pretreated with ibrutinib for 2 hrs followed by compound treatment and measured after 8 hrs by Western blot analysis.
Experiment [14] has the same target. The experiment in a line: PROTAC activity at CRBN/BTK in human Ramos cells assessed as induction of BTK degradation at 100 nM pretreated with pomalidomide for 2 hrs followed by compound treatment and measured after 8 hrs by Western blot analysis.
Experiment [15] shares this target. The experiment in a line: PROTAC activity at CRBN/BTK in human Ramos cells assessed as induction of BTK degradation at 100 nM pretreated with MG132 for 2 hrs followed by compound treatment and measured after 8 hrs by Western blot analysis.
The target is the same in experiment [16]. The experiment in a line: PROTAC activity at CRBN/BTK in human Ramos cells assessed as induction of BTK degradation at 100 nM pretreated with bafilomycin for 2 hrs followed by compound treatment and measured after 8 hrs by Western blot analysis.

For orientation: EC50 means the midpoint of the concentration-response curve. In general, Emax refers to the maximal effect, on the per cent scale that the assay sets.

Molecules are shown by their SMILES. Activity calls are given as the source filed them. The rule behind the calls is not given here.

With `Nc1ncnc2c1c(-c1ccc(Oc3ccccc3)cc1)nn2C1CCN(Cc2ccc(C#CC3CCN(c4cccc5c4C(=O)N(C4CCC(=O)NC4=O)C5=O)CC3)nc2)CC1` (centres undefined), the Activity in [1] worked out at 58.6%. In experiment [2], the EC50 came out at 46.1 nM. Moreover, the Emax in experiment [3] came out at 95%. For the same compound, the outcome in experiment [4] was Active.

As to `Nc1ncnc2c1c(-c1ccc(Oc3ccccc3)cc1)nn2C1CCN(CCOCCOCC(=O)Nc2ccc3c(c2)C(=O)N(C2CCC(=O)NC2=O)C3=O)CC1` (centres undefined), in [1], the Activity was found to be 75.7%. For the same compound, the concentration for a half-maximal effect (EC50) in experiment [2] came to 63.3 nM. Besides, the maximal response (Emax) in experiment [3] was found to be 92.4%.

On to `Nc1ncnc2c1c(-c1ccc(Oc3ccccc3)cc1)nn2C1CCN(C(=O)CCCN2CCN(C(=O)CCC(=O)Nc3ccc4c(c3)C(=O)N(C3CCC(=O)NC3=O)C4=O)CC2)CC1` (centres undefined), for which the Activity in [1] was found to be 41.8%.

For the compound `Nc1ncnc2c1c(-c1ccc(Oc3ccccc3)cc1)nn2C1CCN(C(=O)CCCN2CCN(CCOCCOCC(=O)Nc3ccc4c(c3)C(=O)N(C3CCC(=O)NC3=O)C4=O)CC2)CC1` (centres undefined), the Activity in experiment [1] is 55%.

For the compound `Nc1ncnc2c1c(-c1ccc(Oc3ccccc3)cc1)nn2C1CCN(C(=O)CN2CCN(CCOCC(=O)Nc3ccc4c(c3)C(=O)N(C3CCC(=O)NC3=O)C4=O)CC2)CC1` (centres undefined), the Activity in [1] was determined as 28.5%.

As for `Nc1ncnc2c1c(-c1ccc(Oc3ccccc3)cc1)nn2C1CCN(C(=O)CN2CCC(N3CCN(CC#Cc4ccc5c(c4)C(=O)N(C4CCC(=O)NC4=O)C5=O)CC3)CC2)CC1` (centres undefined), the Activity in experiment [1] is 57.8%.

With `Nc1ncnc2c1c(-c1ccc(Oc3ccccc3)cc1)nn2C1CCN(C(=O)CN2CCN(CC3CN(c4cccc5c4C(=O)N(C4CCC(=O)NC4=O)C5=O)C3)CC2)CC1` (centres undefined), the Activity in [1] was 67.5%. Moreover, the EC50 in experiment [2] stood at 7.27 nM; in [6] it was 9.06 nM. Besides, the maximum response (Emax) in experiment [3] turned out to be 97.6%; in [7] it was 99.7%. The outcome in [5] and in [8] was Active.

Consider `Nc1ncnc2c1c(-c1ccc(Oc3ccccc3)cc1)nn2C1CCN(C(=O)c2ccc(N3CCN(CC#Cc4ccc5c(c4)C(=O)N(C4CCC(=O)NC4=O)C5=O)CC3)nc2)CC1` (centres undefined), for which the Activity in [1] was found to be 47.4%.

Take `Nc1ncnc2c1c(-c1ccc(Oc3ccccc3)cc1)nn2C1CCN(CC2CN(CC3CN(c4cccc5c4C(=O)N(C4CCC(=O)NC4=O)C5=O)C3)C2)CC1` (centres undefined): in [1], the Activity turned out to be 31.3%.

As for `Nc1ncnc2c1c(-c1ccc(Oc3ccccc3)cc1)nn2C1CCN(C(=O)CN2CCC(CN3CCN(CC#Cc4ccc5c(c4)C(=O)N(C4CCC(=O)NC4=O)C5=O)CC3)CC2)CC1` (centres undefined), the Activity in experiment [1] is 33.6%.

In the case of `Nc1ncnc2c1c(-c1ccc(Oc3ccccc3)cc1)nn2C1CCN(CC2CN(c3cccc4c3C(=O)N(C3CCC(=O)NC3=O)C4=O)C2)CC1` (centres undefined), the result in [9] was inactive.

Turning to `Nc1ncnc2c1c(-c1ccc(Oc3ccccc3)cc1)nn2C1CCN(Cc2ccc(C#CC3CCN(c4ccc5c(c4)C(=O)N(C4CCC(=O)NC4=O)C5=O)CC3)nc2)CC1` (centres undefined), the Activity in [1] stood at 62.7%. For the same compound, the EC50 in [2] came to 51.1 nM. Besides, the Emax in experiment [3] is 97.8%. Moreover, in [4], the result was Active.

As for `Nc1ncnc2c1c(-c1ccc(Oc3ccccc3)cc1)nn2C1CCN(CC2CN(CC3CN(c4ccc5c(c4)C(=O)N(C4CCC(=O)NC4=O)C5=O)C3)C2)CC1` (centres undefined), the Activity in experiment [1] was 31.5%.

`Nc1ncnc2c1c(-c1ccc(Oc3ccccc3)cc1)nn2C1CCN(C(=O)CN2CCN(CC3CCN(c4cccc5c4C(=O)N(C4CCC(=O)NC4=O)C5=O)CC3)CC2)CC1` (centres undefined): the Activity in experiment [1] was found to be 91%. The values for the EC50 in experiment [2] and in experiment [6] were 9.37 nM and 10.3 nM, respectively. For the same compound, the results for the maximal response (Emax) in [3] and in experiment [7] were 99.4% and 99.5%, respectively. Besides, the result in experiment [5], in experiment [4] and in experiment [8] was Active.

As for `Nc1ncnc2c1c(-c1ccc(Oc3ccccc3)cc1)nn2C1CCN(C(=O)CN2CCN(CC#Cc3ccc4c(c3)C(=O)N(C3CCC(=O)NC3=O)C4=O)CC2)CC1` (centres undefined), the Activity in [1] came to 39.5%.

As to `Nc1ncnc2c1c(-c1ccc(Oc3ccccc3)cc1)nn2C1CCN(C(=O)CN2CCN(C(=O)CCC(=O)Nc3ccc4c(c3)C(=O)N(C3CCC(=O)NC3=O)C4=O)CC2)CC1` (centres undefined), in experiment [1], the Activity was found to be 61.5%.

Take `Nc1ncnc2c1c(-c1ccc(Oc3ccccc3)cc1)nn2C1CCN(CC2CN(CC3CCN(c4cccc5c4C(=O)N(C4CCC(=O)NC4=O)C5=O)CC3)C2)CC1` (centres undefined): in [1], the Activity was 36.2%.

For the compound `Nc1ncnc2c1c(-c1ccc(Oc3ccccc3)cc1)nn2C1CCN(CC2CCN(c3cccc4c3C(=O)N(C3CCC(=O)NC3=O)C4=O)CC2)CC1` (centres undefined), the outcome in experiment [9] was inactive.

Take `Nc1ncnc2c1c(-c1ccc(Oc3ccccc3)cc1)nn2C1CCN(C(=O)CN2CCN(CC3CCN(c4ccc5c(c4)C(=O)N(C4CCC(=O)NC4=O)C5=O)CC3)CC2)CC1` (centres undefined): the Activity in experiment [1] was 99.7%; in experiment [12], 100%. Further, the figures for the EC50 in experiment [2] and in experiment [6] were 6.11 nM and 2.93 nM, respectively. The Emax in experiment [3] and in experiment [7] was 99.7% each time. The outcome in [4], in experiment [10], in [13], in experiment [14] and in experiment [15] was inactive. The result in experiment [11] and in experiment [16] was Active.

Regarding `Nc1ncnc2c1c(-c1ccc(Oc3ccccc3)cc1)nn2C1CCN(C(=O)CCCN2CCN(CCOCC(=O)Nc3ccc4c(c3)C(=O)N(C3CCC(=O)NC3=O)C4=O)CC2)CC1` (centres undefined), the Activity in experiment [1] was found to be 40%.

Consider `Nc1ncnc2c1c(-c1ccc(Oc3ccccc3)cc1)nn2C1CCN(C(=O)CN2CCN(CCOCCOCC(=O)Nc3ccc4c(c3)C(=O)N(C3CCC(=O)NC3=O)C4=O)CC2)CC1` (centres undefined), for which the Activity in experiment [1] turned out to be 38.9%.

Turning to `Nc1ncnc2c1c(-c1ccc(Oc3ccccc3)cc1)nn2C1CCN(C(=O)CN2CCN(C(=O)CCCC(=O)Nc3ccc4c(c3)C(=O)N(C3CCC(=O)NC3=O)C4=O)CC2)CC1` (centres undefined), the Activity in [1] was found to be 61.9%.

Turning to `Nc1ncnc2c1c(-c1ccc(Oc3ccccc3)cc1)nn2C1CCN(C(=O)c2ccc(N3CCN(c4ccc5c(c4)C(=O)N(C4CCC(=O)NC4=O)C5=O)CC3)nc2)CC1` (centres undefined), the Activity in experiment [1] stood at 71.7%. In addition, the EC50 in experiment [2] amounted to 26.9 nM. The Emax in experiment [3] was determined as 97.8%. Besides, in [4], the result was Active.
